Measured values reported in the METLIN SMRT retention time set (Domingo-Almenara et al. 2019).

Assay: gradient 5% acetonitrile 3 min, to 50% in 2 min, to 85% in 15 min, held 3 min, 100 µL/min
Details: column: Zorbax Extend-C18 2.1 x 50 mm; eluents: water / acetonitrile, 0.1% formic acid
Procedure, shortened: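 Standards, all pure, were combined into mixtures of ~100 molecules and run at 100 μL/min on a Zorbax Extend-C18 column (2.1 × 50 mm, 1.8 μm) with water and acetonitrile, each containing 0.1% formic acid. A coupled quadrupole time-of-flight mass spectrometer operated in positive and negative ionization mode. Retention time values come from computationally picked adduct peaks, each inspected manually.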

| Compound | RP-LC retention time [s] |
| --- | --- |
| COc1cc(=O)c(C(N)=O)nn1-c1ccc(C)cc1 | 612 |
| CCCNC(=O)N1CCC(c2noc(-c3cccnc3)n2)C1 (centres undefined) | 642 |
| COC1CN(C2CCN(C(=O)CC(C)C)CC2)C12CCOCC2 (centres undefined) | 579 |
| CCn1cc(C(=O)Nc2cccc(F)c2)c2cccnc21 | 892 |
| Cn1ccc2c(cc(C(=O)NCc3ccc4c(c3)OCO4)n2C)c1=O | 660 |
| O=C(NCCc1csc(-c2cccs2)n1)C1CCN(C(=O)CCC2CCCC2)CC1 | 901 |
| O=C(NC1CCCCC1)N1CC(c2nnc(-c3ccncc3)o2)C2(CCOCC2)C1 (centres undefined) | 621 |
| CSc1ccc(CNC(=O)c2c(C)sc3ccn(C)c(=O)c23)cc1 | 784 |
| CCOC(=O)c1cccc(NC(=O)Cn2c(=O)c(CCC(=O)NC)nc3ccccc32)c1 | 741 |
| CCCC(=O)N1CCC2(CC1)NC(=O)c1ccccc1O2 | 688 |
| CC1Oc2ccccc2OC1C(=O)NCCn1nc(-c2ccco2)ccc1=O (centres undefined) | 722 |
| Cc1noc(/C=C\c2ccc(S(=O)(=O)NCC3CCCO3)cc2)c1NC(=O)C1CC1 (centres undefined) | 737 |
| Cc1nnc(C2CC3(CCN(CCc4ccccc4)CC3)CN2CCc2ccccc2)o1 (centres undefined) | 666 |
| CCOC(=O)Cc1cc(=O)oc2cc(O)cc(O)c12 | 660 |
| CCc1nc(-c2csc(S(=O)(=O)N3CCCC(C(=O)Nc4cc(C)cc(C)c4)C3)c2)no1 (centres undefined) | 1090 |
| CCC(C(=O)NCc1ccc(C)o1)n1nc(C)c2c(C)n(-c3ccccc3)nc2c1=O (centres undefined) | 862 |
| COc1cc(NC(=O)N2CCN(Cc3nc4ccc(C)cc4o3)CC2)cc(OC)c1OC | 669 |
| CCOC(=O)C1CCN(C(=O)C2CCN(c3nnc(-c4ccccc4)o3)CC2)CC1 | 801 |
| COCCc1nncn1C1CCN(S(=O)(=O)c2cccc(F)c2)CC1 | 696 |
| COc1ncccc1CNC(=O)Cc1ccsc1 | 610 |
| O=C(NCC1CCCO1)C1CCN(C(=O)c2ncn3c2COC(c2ccccc2)C3)CC1 (centres undefined) | 649 |

| Compound | RP-LC retention time [s] |
| --- | --- |
| CCc1ccc(NC(=O)C2(C)Oc3cccnc3N(CC)C2=O)cc1 (centres undefined) | 982 |
| CCc1nnc(-c2cn(CC(=O)NCc3ccc(C)o3)c3ccccc23)o1 | 740 |
| CCOC(=O)c1cccc(N2C=C(C(=O)OC)S(=O)(=O)c3ccccc32)c1 | 858 |
| Cc1noc(C)c1Cc1ccc(C(=O)N2CCCC(c3[nH]ccc3C(N)=O)C2)o1 (centres undefined) | 649 |
| Cc1ccc(NC(=O)C2CCCN2S(=O)(=O)c2cc3c(cc2C)NC(=O)C(C)O3)cc1 (centres undefined) | 794 |
| COCCNC(=O)NCCS(=O)(=O)N1CCN(c2cccc(C)c2)CC1 | 661 |
| CC(C)n1cnnc1CC1CN(C(=O)Nc2ccc(Cl)cc2C(F)(F)F)C1 | 693 |
| Cc1cc(N2CCN(S(=O)(=O)c3ccccc3)CC2)nc(NC2CCCCC2)n1 | 776 |
| Cc1csc(NC(=O)c2sc3nc(-c4cccc([N+](=O)[O-])c4)cn3c2C)n1 | 800 |
| CCCc1noc(-c2ccc3nnc(CC(=O)N4CCSCC4)n3c2)n1 | 755 |
| COCCN(CCNC(=O)c1cc(-c2ccccn2)nc2ccccc12)Cc1ccco1 | 660 |
| CCNC(=O)c1nc(-c2ccncc2)cs1 | 574 |
| CCOC(=O)c1ccc(NC(=O)N2CCCC2c2cc(C)no2)cc1 (centres undefined) | 809 |
| O=C(NCCOc1cc(N2CCCC2)ncn1)NCc1ccccc1 | 575 |
| O=C(Nc1nnc(Cc2cccs2)o1)c1cc(Cl)sc1Cl | 831 |
| CCOC(=O)c1c(S(=O)(=O)N2CCC(C(=O)Nc3ccc(C)c(F)c3)CC2)c(C)n(CC)c1C | 984 |
| Cc1cccc(C)c1NC(=O)Cn1cnc2nc(N3CCC(C(=O)NC(C)C)CC3)sc2c1=O | 666 |
| CCn1ccc2sc(C)c(C(=O)NCc3cccc(OC)c3OC)c2c1=O | 814 |
| COc1cc(OC)c(OC)cc1CN1CCC(C)(c2noc(C3CCOCC3)n2)CC1 | 642 |
| CN(C)C(=O)c1cn(C2CN(C(=O)c3ccc(C#N)cc3)C2)nn1 | 624 |

Continued, values first:

| RP-LC retention time [s] | Compound |
| --- | --- |
| 616 | CCn1c(CCNC(=O)c2cccc(F)c2)nc2cccnc21 |
| 704 | Clc1ccccc1Cc1nc(-c2ccc(OC3CCNC3)cc2)no1 (centres undefined) |
| 798 | CCOc1ccccc1NC(=O)c1cncc(NS(=O)(=O)c2ccc(OC)cc2)c1 |
| 1280 | CCOc1ccccc1NS(=O)(=O)c1ccccc1-c1nc(-c2cccc(F)c2)no1 |
| 1110 | CCOc1ccccc1CNC(=O)C1CCCN(c2nccnc2Sc2ccccc2)C1 (centres undefined) |
| 1020 | O=C1CC(c2ccccc2)Cc2[nH]c(=O)c(C(=O)Nc3cccc(C(F)(F)F)c3)cc21 (centres undefined) |
| 998 | Cc1nc(-c2ccccc2)cc2nn(CC(=O)Nc3cc(F)cc(F)c3)c(=O)n12 |
| 1060 | Cc1cc(C)cc(NC(=O)Cn2cccc(-c3nc(-c4ccc(Br)cc4)no3)c2=O)c1 |
| 709 | O=C(Nc1ccc(F)c(F)c1)C1CCN(c2cc(N3CCSCC3)ncn2)CC1 |
| 870 | COc1ccccc1NC(=O)NC1CCN(c2ccc(C)c(C)c2)C1=O (centres undefined) |
| 558 | Cn1c(CN2CCN(C(=O)Nc3ccccc3C(F)(F)F)CC2)nc2ccccc21 |
| 693 | O=C(NCCN1CCC(Cc2ccccc2)CC1)c1ccc2c(c1)NC(=O)C1CCCCN21 (centres undefined) |
| 906 | Cc1ccc(-c2nc(C)c(C(=O)N3CCCC3)s2)cc1 |
| 779 | CN(C)c1ccc(C(=O)N2CCC(COc3ccc(C(=O)NC4CC4)cc3)CC2)cc1 |
| 1290 | O=S(=O)(c1ccc(-c2noc(-c3cccc(Br)c3)n2)cc1)N1CCCC1 |
| 634 | CCN(Cc1ccc(Cl)cc1)Cc1cc(=O)n2ccc(C)cc2n1 |
| 707 | O=C1CC(c2nc(-c3ccccn3)no2)CN1c1ccc2c(c1)OCO2 (centres undefined) |
| 924 | Cc1nc(-c2ccc(N3CCN(C(=O)c4cc5ccccc5[nH]4)CC3)nc2)sc1C |
| 883 | COCCn1cc2c3c(cccc31)CN(C(=O)Nc1ccc(OC)cc1OC)CC2 |
| 720 | Cc1ccc2c(Nc3cccc(C(C)C)c3)c(C(=O)N3CCCCC3C)cnc2n1 (centres undefined) |
| 920 | COc1ccc(C(=O)N2CCc3cn(C)c4cccc(c34)C2)cc1 |
| 690 | Cc1ccc(-c2nc(C(N)=O)c3n2CCCCC3)cc1 |
| 1150 | O=C(Nc1ccc(-c2nc(-c3cccc(Br)c3)co2)cc1)c1ccco1 |
| 680 | COc1ccc(C(=O)Nc2ccc3nc(N4CC(C)CC(C)C4)cc(C(=O)O)c3c2)cc1 (centres undefined) |

| RP-LC retention time [s] | Compound |
| --- | --- |
| 647 | CCn1c(C(=O)NCCCN2CCCCC2)c(N2CCCC2=O)c2cc(F)ccc21 |
| 1140 | CCOc1ccc(-c2cc3c(=O)n(Cc4nc(-c5ccc(Cl)cc5)no4)ncn3n2)cc1 |
| 818 | Cc1noc(COC2CCN(C(=O)c3ccccc3F)CC2)n1 |
| 767 | O=C(Cc1ccc(Br)cc1)NC1CCN(c2cc(-c3cccs3)[nH]n2)C1 (centres undefined) |
| 935 | CCOc1ccccc1NC(=O)Cn1nc2c(Oc3ccccc3C)nccn2c1=O |
| 1130 | O=C(c1cc(F)ccc1Cl)N1CCc2nc(-c3ccc(Cl)cc3)ncc2C1 |
| 869 | COc1ccccc1CC(=O)Nc1ccc(-c2nc(Cn3cccn3)c(C)o2)cc1 |
| 729 | COc1ccc(N2CCN(C(=O)C3CC(=O)N(CCc4ccccc4)C3)CC2)cc1 (centres undefined) |
| 903 | Cc1ccc(N2CCC(NC(=O)Nc3cc(F)cc(F)c3)C2=O)cc1C (centres undefined) |
| 931 | O=C(Cc1ccsc1)N1CCCn2nc(-c3ccc(Cl)cc3)cc2C1 |
| 626 | O=C(NC1CC1)c1cc(=O)[nH]c2c(Cl)cccc12 |
| 739 | Cc1ccc(NC(=O)Cn2cnc3nc(N4CCCC(C(=O)NC(C)C)C4)sc3c2=O)cc1F (centres undefined) |
| 1020 | Cc1cccc2c(=O)n(C3CCN(S(=O)(=O)c4cccc(Cl)c4)CC3)cnc12 |
| 1060 | COc1ccc(-c2ncc3c(n2)CCN(S(=O)(=O)c2cccc(F)c2)C3)cc1 |
| 1110 | Cc1ccc(NC(=O)CSc2nccc(N3CCN(c4cc(C)ccc4C)CC3)n2)c(F)c1 |
| 771 | CCc1ccc(Nc2nc(C(=O)N3CCOCC3)nc3ccccc23)cc1 |
| 841 | O=c1c2nc(-c3ccccc3)cn2ccn1-c1ccc(Cl)cc1 |
| 919 | O=C(CN1C(=O)CCCc2cc(S(=O)(=O)N3CCCCCC3)ccc21)NCc1ccc(F)cc1 |
| 618 | O=C(NCc1cccc(C(F)(F)F)c1)c1ccc2c(c1)ncn2CCN1CCCC1 |
| 779 | O=C(NCc1ccco1)c1nc(Nc2ccc(F)cc2)c2ccccc2n1 |
| 1150 | O=c1c2ccccc2n(Cc2nc(-c3cccc(Br)c3)no2)c(=O)n1CC1CCCO1 (centres undefined) |
| 795 | CCOC(=O)c1ccc(Nc2c(-c3ccc(N4CCOCC4)cc3)nc3cnccn23)cc1 |
| 599 | CC(=O)N(C)Cc1nc2ccccc2n1CCOc1ccccc1Cl |
| 657 | O=C(Nc1cccc(Cl)c1)c1nnc(COCC(=O)N2CCN(c3ccccn3)CC2)s1 |
